# Assay results published in patent publication US20240108598A1, “Danegaptide for Use in the Treatment or Prevention of a Kidney Disease” (CIANA THERAPEUTICS APS, priority 2021, published 2024).
# Tests used:
# HK2 cells [1] = assay: MTT assay (cell viability); type: cell-based, human; conditions: 48 h
# Procedure: (§1) HK2 cells were cultured in low glucose (5 mM) for 48 h, prior to being serum-starved overnight and subsequently treated with TGFβ1 (10 ng/mL)±danegaptide (50 nM-1 μM) for 48 h (FIG. 1A, n=3).
# The 3-(4,5-Dimethylthiazol-2-yl)-2,5-diphenyltetrazolium bromide (MTT) assay was performed as known in the art to assess the cytotoxic effects of danegaptide on cell proliferation. HK2 cells were seeded in 96-well plates and cultured in low glucose DMEM/F12 (5 mM) for 48 h, prior to overnight serum-starvation, then subsequently stimulated for 48 h with TGFβ1 (10 ng/ml)±danegaptide (50-1000 nM). Colourmetric measurement of formazan production corresponds to the number of viable cells.
# HK2 cells [2] = assay: Lactate dehydrogenase (LDH) release assay; type: cell-based; conditions: 48 h
# Procedure: as §1
# The release of lactate dehydrogenase (LDH) into media as a result of plasma membrane damage is commonly used to evaluate cell death or cytotoxicity. HK2 cells were seeded in 96-well plates and cultured in low glucose DMEM/F12 (5 mM) for 48 h, prior to overnight serum-starvation. Cells were then stimulated for 48 h with TGFβ1 (10 ng/ml)±danegaptide (50-1000 nM). The LDH-cytotoxicity assay kit II (Abcam) was used to quantify LDH according to the manufacturer's instructions.
# primary hPTECs [3] = assay: qPCR of cell cycle and reno-protective marker mRNA; type: cell-based, human; conditions: TGFβ1 10 ng/mL + danegaptide 100 nM, 12 h
# Procedure: Primary hPTECs were cultured in low (5 mM) glucose±TGFβ1 (10 ng/mL)±danegaptide (100 nM) for 12 h. […] Danegaptide (100 nM) negated the increase in p16, p21, cyclinD1 (▴▴▴P<0.001; mean±SEM, n=3) and partly reversed the TGFβ1-evoked change in Klotho.
# To determine if danegaptide can negate hemichannel-mediated regulation of common cell cycle and reno-protective markers, hPTECs were incubated with TGFβ1 (10 ng/mL)±danegaptide (100 nM) for 12 h and expression of candidate gene mRNA assessed through qPCR analysis.
# RNA was extracted using an RNeasy mini kit (QIAGEN) and reverse transcribed (Invitrogen). Real-time PCR (SYBR GreenER, Invitrogen) was performed using a StepOne Plus instrument (Applied Biosystems Inc, Foster City, CA). cDNA expression was obtained by comparing to a standard curve of serially-diluted cDNA. The following primers were used: p16 (forward: […], reverse: […]), p21 (forward: […], reverse: […]), cyclinD1 (forward: […], reverse: […]), Klotho (forward: […], reverse: […]). Melt curve analysis confirmed primer specificity and checked for potential contamination.
# primary hPTECs [4] = assay: Inflammation antibody array, cell lysates (Table 1); type: cell-based, human; conditions: hPTEC lysate; TGF-β1 10 ng/mL + DG 100 nM, 48 h
# Excerpt: An inflammation antibody array was used to assess regulation of 31 candidate inflammatory proteins in cell lysates from hPTEC cells treated with TGFβ1±danegaptide. Results are representative of 3 separate experiments and presented as mean±SEM, n=3 with key significances indicated (*P<0.05, **P<0.01, ***P<0.001; one-way ANOVA and Tukey's post-test).
# A proteome profiler array (Human Cytokine Array Kit from R&D Systems, Oxfordshire, UK) was used, to determine if danegaptide negates TGFβ1-induced changes in expression and secretion of key pro-inflammatory mediators. Primary hPTECs were cultured as described above and treated with TGFβ1 (10 ng/mL)±danegaptide (100 nM) for 48 h.
# [5] = TGFβ1 10 ng/mL + danegaptide 50 nM
# [6] = TGFβ1 10 ng/mL + danegaptide 100 nM
# [7] = TGFβ1 10 ng/mL + danegaptide 1 μM
smiles,measurement,setting,value
"NCC(=O)N1C[C@H](NC(=O)c2ccccc2)C[C@H]1C(=O)O [danegaptide, (2S,4R)-1-(2-aminoacetyl)-4-benzamidopyrrolidine2-carboxylic acid]",cell viability (MTT) as compared to control,HK2 cells [1]; [5],104.1±2.2%
same,cell viability (MTT) as compared to control,HK2 cells [1]; [6],93.4±1.6%
same,cell viability (MTT) as compared to control,HK2 cells [1]; [7],89.3±3.7%
same,cell viability (MTT) as compared to control,HK2 cells [1]; danegaptide alone 50 nM,95.2±7%
same,cell viability (MTT) as compared to control,HK2 cells [1]; danegaptide alone 100 nM,103±5.7%
same,cell viability (MTT) as compared to control,HK2 cells [1]; danegaptide alone 1 μM,96.6±5.3%
same,LDH release compared to control,HK2 cells [2]; [5],106.4±11.6%
same,LDH release compared to control,HK2 cells [2]; [6],113.9±15.6%
same,LDH release compared to control,HK2 cells [2]; [7],113.2±4.3%
same,LDH release compared to control,HK2 cells [2]; danegaptide alone 50 nM,104.4±4.3%
same,LDH release compared to control,HK2 cells [2]; danegaptide alone 100 nM,95.3±4.7%
same,LDH release compared to control,HK2 cells [2]; danegaptide alone 1 μM,92.6±3.3%
same,"Klotho mRNA expression, of control",primary hPTECs [3],59.9±11.7%
same,"cyclinD1 mRNA expression, of control",primary hPTECs [3],132.9±15.0%
same,"p16 mRNA expression, of control",primary hPTECs [3],193±18.5%
same,"p21 mRNA expression, of control",primary hPTECs [3],142.2±6.2%
same,Angiogenin in lysate (% compared to control),primary hPTECs [4],100 ± 20.3%
same,Cystatin C in lysate (% compared to control),primary hPTECs [4],123 ± 14.3%
same,DPPIV in lysate (% compared to control),primary hPTECs [4],187 ± 25.2%
same,ENA 78 in lysate (% compared to control),primary hPTECs [4],97 ± 18.2%
same,Endoglin in lysate (% compared to control),primary hPTECs [4],72.3 ± 8.9^ %
same,FGF7 in lysate (% compared to control),primary hPTECs [4],106 ± 15.2%
same,Flt 3 Ligand in lysate (% compared to control),primary hPTECs [4],208 ± 31.4%
same,G-CSF in lysate (% compared to control),primary hPTECs [4],126 ± 4.7%
same,GM-CSF in lysate (% compared to control),primary hPTECs [4],136 ± 11.6%
same,HGF in lysate (% compared to control),primary hPTECs [4],104.0 ± 9.0%
same,ICAM 1 in lysate (% compared to control),primary hPTECs [4],80 ± 28.7%
same,IFNg in lysate (% compared to control),primary hPTECs [4],112 ± 12.7%
same,IGFBP2 in lysate (% compared to control),primary hPTECs [4],334 ± 66.1%
same,IGFBP3 in lysate (% compared to control),primary hPTECs [4],97 ± 28.5%
same,IL1A in lysate (% compared to control),primary hPTECs [4],80 ± 18.8%
same,IL3 in lysate (% compared to control),primary hPTECs [4],129 ± 15.7%
same,IL8 in lysate (% compared to control),primary hPTECs [4],122 ± 5.2%
same,IL12 p70 in lysate (% compared to control),primary hPTECs [4],97 ± 4.6%
same,IL13 in lysate (% compared to control),primary hPTECs [4],150 ± 46.0%
same,Kallikrein 3 in lysate (% compared to control),primary hPTECs [4],67 ± 14.3%
same,LIF in lysate (% compared to control),primary hPTECs [4],225 ± 82^ %
same,MCP-1 in lysate (% compared to control),primary hPTECs [4],97.6 ± 13.9%
same,MMP9 in lysate (% compared to control),primary hPTECs [4],95 ± 10.6%
same,PDGF-AA/BB in lysate (% compared to control),primary hPTECs [4],95.2 ± 14.6%
same,RAGE in lysate (% compared to control),primary hPTECs [4],105 ± 9.2%
same,RANTES in lysate (% compared to control),primary hPTECs [4],104 ± 15.2%
same,Serpin E1 in lysate (% compared to control),primary hPTECs [4],148 ± 28.5%
same,TFF3 in lysate (% compared to control),primary hPTECs [4],132 ± 3.9%
same,TNF-α in lysate (% compared to control),primary hPTECs [4],144 ± 18.5%
same,Thrombospondin-1 in lysate (% compared to control),primary hPTECs [4],100 ± 19.8%
same,VEGF in lysate (% compared to control),primary hPTECs [4],101 ± 16.4%
